Assay results taken from patent US20130310625A1, “VELIPARIB IN COMBINATION WITH WHOLE BRAIN RADIATION THERAPY FOR THE TREATMENT OF BRAIN METASTASES” (AbbVie Inc., priority 2012, published 2013).
“Also recorded” adds a separate entry of the source.

Key:
[1] = nonhuman primate model (Muscal et al. 2010); cited from earlier work
[2] = Phase 1 safety and tolerability of veliparib with WBRT (AEs by NCI CTCAE v3.0, DLTs); format: in vivo, human
Description: (§1) This example is a Phase 1, multicenter, dose-escalation study evaluating the safety, tolerability and pharmacokinetics of veliparib administered concurrently with conventional WBRT in subjects with solid primary tumors metastatic to the brain.
(§2) Patients received WBRT delivered in 2.5 Gy fractions once a day (QD) for a total of 15 fractions or WBRT delivered at 3.0 Gy fractions QD for a total of 10 fractions.
(§3) Veliparib dose-escalation began at 10 mg and increased to 20, 30, 50, 80, 100, 150, 200, and 300 mg twice a day (BID) through out the entire course of WBRT (Table 2); the final WBRT fraction was followed by 1 extra day of veliparib.
AEs were assessed by NCI CTCAE v3.0.

[3] = Phase 1 pharmacokinetics of veliparib administered concurrently with WBRT in patients with brain metastases; format: in vivo, human
Description: as §1, §2, §3
To determine PK of veliparib, intensive PK sampling was performed on Day 1 of the WBRT schedules (15 and 10 day) at the following time points: 0, 30, 1, 2, 6 and 24 hours. PK as was also performed on Day 6 for both WBRT schedules at the following time points: 0, 30 min, 1, 2, and 6 For the 15 Day schedule sampling was performed on Day 15 at 0, 30 min, 1, 2 and 6 hours. For the 10 day schedule only a 0 hour sample was collected. Post treatment samples were collected 24-72 hours after the last dose of veliparib for both WBRT schedules.

[4] = preclinical study; cited from earlier work
brain metastases = details: radio-sensitizer added to WBRT, randomized controlled studies; cited from earlier work
[5] = N = 66, possibly or probably related to veliparib

Q: With `C[C@]1(c2nc3c(C(N)=O)cccc3[nH]2)CCCN1` [Veliparib, 2-[(2R)-2-methylpyrrolidin-2-yl]-1H-benzimidazole-4-carboxamide] as the compound, how does the “level in CSF” value [1] read?
A: measured in CSF in a range that has been shown to inhibitor PARP activity in vivo in humans

Q: What about the DLT ([2]; 150 mg veliparib BID, one patient each) of the same compound?
A: grade 3 hypokalemia; also recorded: grade 3 hyponatraemia

Q: And the “dose limiting toxicities (DLTs)” value ([2]; 10, 20, 30, 50, 80, 100, 200 and 300 mg dose levels)?
A: No dose limiting toxicities (DLTs) were observed

Q: And the “Any Event, Any Grade, treatment-emergent AEs possibly or probably related to veliparib” value ([2]; N = 66)?
A: 37 (56) n (%)

Q: What about the “Any Event, Grade 3/4 AEs possibly or probably related to veliparib” value ([2]; N = 66) of the same compound?
A: 10 (15) n (%)

Q: What about the “Decreased Appetite, Any Grade” value [2, 5] of the same compound?
A: 8 (12) n (%)

Q: And the “Fatigue, Any Grade” value [2, 5]?
A: 22 (33.3) n (%)

Q: What about the “Fatigue, Grade 3/4” value [2, 5] of the same compound?
A: 3 (5) n (%)

Q: What about the “Nausea, Any Grade” value [2, 5] of the same compound?
A: 13 (19.7) n (%)

Q: What about the “Nausea, Grade 3/4” value [2, 5] of the same compound?
A: 1 (2) n (%)

Q: What about the “Vomiting, Any Grade” value [2, 5] of the same compound?
A: 8 (12) n (%)

Q: And the “patients with AEs leading to study drug discontinuation” value ([2]; all causes)?
A: 8 (12%) patients

Q: What about the “patients with AEs leading to study drug discontinuation possibly or probably related to veliparib” value ([2]; in vivo) of the same compound?
A: 2 (3%) patients

Q: What about the “Increase in veliparib exposure (Cmax and AUC) with increase in veliparib dose” value ([3]; 10 to 150 mg BID dose range) of the same compound?
A: approximately dose-proportional

Q: And the “veliparib accumulation following BID dosing” value ([3]; Cmax and AUC on Day 1, Day 6 and Day 15)?
A: minimal

Q: And the “effect of food on veliparib oral bioavailability” value ([3]; exposure Day 6 (fasting) vs Day 15 (non-fasting))?
A: no significant effect of food

Q: What about the Tmax ([3]; human, plasma, oral veliparib BID with WBRT, patients) of the same compound?
A: 1 to 2 h

Q: And the oral clearance ([3]; mean±SD, n=45, 10 to 150 mg BID dose range)?
A: 21.6 ± 14.2 L/h

Q: And the “blood-brain barrier crossing and accumulation in brain tumor tissue” value [4]?
A: shown to cross the blood-brain barrier and accumulate in brain tumor tissue

Q: With `O=c1[nH]c(=O)n([C@H]2C[C@H](O)[C@@H](CO)O2)cc1Br` [bromodeoxyuridine] as the compound, how does the “benefit in local brain tumor control or overall survival” value (“benefit” below) (brain metastases) read?
A: failing to benefit

Q: For `Cc1cc(C)cc(NC(=O)Cc2ccc(OC(C)(C)C(=O)O)cc2)c1` [efaproxiral], which “benefit” value (brain metastases) is on record?
A: failing to benefit

Q: For `O=C(O)c1nn(Cc2ccc(Cl)cc2Cl)c2ccccc12` [lonidamine], which “benefit” value (brain metastases) is on record?
A: failing to benefit

Q: Which “benefit” value (brain metastases) does the source give for `Cc1ncc([N+](=O)[O-])n1CCO` [metronidazole] here?
A: failing to benefit

Q: Which “benefit” value (brain metastases) does the source give for `COCC(O)Cn1ccnc1[N+](=O)[O-]` (stereo not shown) [misonidazole] here?
A: failing to benefit

Q: Which “benefit” value (brain metastases) does the source give for `CC(=O)[O-].CC(=O)[O-].CCc1c(CC)c2cc3nc(cnc4cc(OCCOCCOCCOC)c(OCCOCCOCCOC)cc4ncc4nc(cc1[n-]2)C(CCCO)=C4C)C(C)=C3CCCO.O.[Gd+3]` [motexafin gadolinium] here?
A: failing to benefit
